{"source": "paper PMC10600247", "about": "“Impact of C- and N-terminal protection on the stability, metal chelation and antimicrobial properties of calcitermin” (Scientific Reports, 2023)", "key": {"C. albicans (ATCC 10231)": {"test_system": "C. albicans (ATCC 10231)", "test": "In vitro antifungal CFU assay", "assay_type": "cell-based, Candida albicans", "conditions": "pH 5.4; for mean CFU number ± S.D.: per 0.1 mL", "description": "(§1) All microbes were grown at 37 °C in Tryptic Soy Broth (TSB; Biolife, Milan, Italy) or Tryptic Soy Agar plates (TSA, Biolife, Milan, Italy). Peptides were tested at a final concentration C = 0.128, 0.064, 0.032 mg/mL, in the presence or absence of ZnCl2 or CuCl2, at a M:L molar ratio 0.9:1. Briefly, all the microbes were expanded in TSB at 37 °C under agitation for 12 h and then sub-cultured by 1:10 dilution in TSB under the same conditions until reaching OD600nm = 0.3–0.4, as measured by spectrophotometric reading using a GENESYS 10S UV–Vis spectrophotometer (Thermo Scientific, Milan, Italy), corresponding to 0.9–1.2 × 10^7 colony forming units (CFU) per mL, 1.5–2 × 10^8 CFU/mL and 2.4–3.2 × 10^8 CFU/mL, for C. albicans, S. aureus and E. coli respectively. The cultures were then centrifuged at 4500 rpm for 10 min in a SL 8 centrifuge (TX-150 Rotor) (Thermo Scientific, Milan, Italy), and the cellular pellets were washed with PBS pH 5.4. Pelletized cultures were then suspended in 10 mL of PBS pH 5.4, then the suspensions were diluted to a final concentration of 10^4 CFU/mL. Aliquots of 100 µl (corresponding to 10^3 CFU) were seeded in each well of a 96-wells plate. 3 µl of TSB at pH 5.4 were added to each well to obtain a final 1.5% TSB concentration in the culture medium. Peptides were serially diluted in PBS pH 5.4 to C = 0.257, 0.128, and 0.064 mg/mL. ZnCl2 and CuCl2 solutions were added where requested to obtain a M:L ratio 0.9:1. 100 µl of the prepared peptides ± ZnCl2/CuCl2 solutions were then added to each well, obtaining the final 0.128, 0.064 and 0.032 mg/mL peptide concentrations in a total 0.2 mL volume. PBS alone and PBS + ZnCl2/CuCl2 solutions were included as controls. The plates were incubated at 37 °C on a platform rocker with slow stirring for 3 and 24 h. At the end of the incubation times, 100 µl aliquots were taken from each sample and diluted in PBS pH 5.4 to be seeded on TSA plates. Specifically, aliquots were diluted 1:10 at 3 h, and 1:200, 1:100,000 and 1:10 at 24 h, for C. albicans, E. coli, and S. aureus respectively. After incubation for 24 h at 37 °C, grown CFUs were enumerated. Samples were assayed in triplicate in two independent experiments. Student’s t-test was used for the evaluation of significance in biological tests; a p value ≤ 0.05 was considered significant."}, "E. coli (ATCC 25922)": {"test_system": "E. coli (ATCC 25922)", "test": "In vitro anti-E. coli CFU assay", "assay_type": "cell-based, Escherichia coli", "conditions": "pH 5.4; for mean CFU number ± S.D.: per 0.1 mL", "description": "as §1"}, "[1]": {"conditions": "peptide 0.032 mg/mL + CuCl2 (0.9:1), 3 h"}, "[2]": {"conditions": "peptide 0.032 mg/mL + CuCl2 (0.9:1), 24 h"}, "[3]": {"conditions": "peptide 0.032 mg/mL + ZnCl2 (0.9:1), 3 h"}, "[4]": {"conditions": "peptide 0.032 mg/mL + ZnCl2 (0.9:1), 24 h"}, "[5]": {"conditions": "peptide 0.064 mg/mL + CuCl2 (0.9:1), 3 h"}, "[6]": {"conditions": "peptide 0.064 mg/mL + CuCl2 (0.9:1), 24 h"}, "[7]": {"conditions": "peptide 0.064 mg/mL + ZnCl2 (0.9:1), 3 h"}, "[8]": {"conditions": "peptide 0.064 mg/mL + ZnCl2 (0.9:1), 24 h"}, "[9]": {"conditions": "peptide 0.128 mg/mL + CuCl2 (0.9:1), 3 h"}, "[10]": {"conditions": "peptide 0.128 mg/mL + CuCl2 (0.9:1), 24 h"}, "[11]": {"conditions": "peptide 0.128 mg/mL + ZnCl2 (0.9:1), 3 h"}, "[12]": {"conditions": "peptide 0.128 mg/mL + ZnCl2 (0.9:1), 24 h"}, "[13]": {"conditions": "peptide alone 0.032 mg/mL, 24 h"}, "[14]": {"conditions": "peptide alone 0.064 mg/mL, 24 h"}, "[15]": {"conditions": "peptide alone 0.128 mg/mL, 24 h"}}, "note": "Residues, ends and D or L forms follow the SMILES beside them.", "data": [{"smiles": "CC[C@H](C)[C@H](NC(=O)[C@H](C)NC(=O)[C@@H](NC(C)=O)C(C)C)C(=O)N[C@@H](C)C(=O)N[C@@H](CC(C)C)C(=O)N[C@@H](CCCCN)C(=O)N[C@@H](C)C(=O)N[C@@H](C)C(=O)N[C@@H](Cc1c[nH]cn1)C(=O)N[C@@H](Cc1ccc(O)cc1)C(=O)N[C@@H](Cc1c[nH]cn1)C(=O)N[C@H](C(=O)N[C@@H](Cc1c[nH]cn1)C(=O)N[C@@H](CCCCN)C(=O)N[C@@H](CCC(=O)O)C(=O)O)[C@@H](C)O", "note": "[L1, Ac-VAIALKAAHYHTHKE] (Ac-VAIALKAAHYHTHKE-OH)", "values": [{"measurement": "CFU decrease/increase with respect to untreated controls", "setting": "C. albicans (ATCC 10231); [1]", "value": -27.3, "unit": "%"}, {"measurement": "mean CFU number ± S.D.", "setting": "C. albicans (ATCC 10231); [1]", "value": "40 ± 28", "unit": "CFU"}, {"measurement": "mean CFU number ± S.D.", "setting": "C. albicans (ATCC 10231); [2]", "value": "1,908 ± 160 CFU"}, {"measurement": "CFU decrease/increase with respect to untreated controls", "setting": "C. albicans (ATCC 10231); [3]", "value": "+16%"}, {"measurement": "mean CFU number ± S.D.", "setting": "C. albicans (ATCC 10231); [3]", "value": "67 ± 4", "unit": "CFU"}, {"measurement": "CFU decrease/increase with respect to untreated controls", "setting": "C. albicans (ATCC 10231); [4]", "value": -2, "unit": "%"}, {"measurement": "mean CFU number ± S.D.", "setting": "C. albicans (ATCC 10231); [4]", "value": "2,230 ± 326 CFU"}, {"measurement": "CFU decrease/increase with respect to untreated controls", "setting": "C. albicans (ATCC 10231); [5]", "value": -27.3, "unit": "%"}, {"measurement": "mean CFU number ± S.D.", "setting": "C. albicans (ATCC 10231); [5]", "value": "40 ± 24", "unit": "CFU"}, {"measurement": "mean CFU number ± S.D.", "setting": "C. albicans (ATCC 10231); [6]", "value": "1,576 ± 112 CFU"}, {"measurement": "CFU decrease/increase with respect to untreated controls", "setting": "C. albicans (ATCC 10231); [7]", "value": "+60%"}, {"measurement": "mean CFU number ± S.D.", "setting": "C. albicans (ATCC 10231); [7]", "value": "88 ± 7", "unit": "CFU"}, {"measurement": "mean CFU number ± S.D.", "setting": "C. albicans (ATCC 10231); [8]", "value": "1,619 ± 165 CFU"}, {"measurement": "CFU decrease/increase with respect to untreated controls", "setting": "C. albicans (ATCC 10231); [9]", "value": -27.3, "unit": "%"}, {"measurement": "mean CFU number ± S.D.", "setting": "C. albicans (ATCC 10231); [9]", "value": "40 ± 11", "unit": "CFU"}, {"measurement": "mean CFU number ± S.D.", "setting": "C. albicans (ATCC 10231); [10]", "value": "1,428 ± 24 CFU"}, {"measurement": "CFU decrease/increase with respect to untreated controls", "setting": "C. albicans (ATCC 10231); [11]", "value": "+31%"}, {"measurement": "mean CFU number ± S.D.", "setting": "C. albicans (ATCC 10231); [11]", "value": "72 ± 10", "unit": "CFU"}, {"measurement": "mean CFU number ± S.D.", "setting": "C. albicans (ATCC 10231); [12]", "value": "265 ± 108", "unit": "CFU"}, {"measurement": "mean CFU number ± S.D.", "setting": "C. albicans (ATCC 10231); peptide alone 0.032 mg/mL, 3 h", "value": "40 ± 10", "unit": "CFU"}, {"measurement": "mean CFU number ± S.D.", "setting": "C. albicans (ATCC 10231); [13]", "value": "1,789 ± 225 CFU"}, {"measurement": "CFU decrease/increase with respect to untreated controls", "setting": "C. albicans (ATCC 10231); peptide alone 0.064 mg/mL, 3 h", "value": -1.8, "unit": "%"}, {"measurement": "mean CFU number ± S.D.", "setting": "C. albicans (ATCC 10231); peptide alone 0.064 mg/mL, 3 h", "value": "54 ± 6", "unit": "CFU"}, {"measurement": "mean CFU number ± S.D.", "setting": "C. albicans (ATCC 10231); [14]", "value": "1,807 ± 433 CFU"}, {"measurement": "CFU decrease/increase with respect to untreated controls", "setting": "C. albicans (ATCC 10231); peptide alone 0.128 mg/mL, 3 h", "value": -51, "unit": "%"}, {"measurement": "mean CFU number ± S.D.", "setting": "C. albicans (ATCC 10231); peptide alone 0.128 mg/mL, 3 h", "value": "27 ± 0.6", "unit": "CFU"}, {"measurement": "mean CFU number ± S.D.", "setting": "C. albicans (ATCC 10231); [15]", "value": "1,666 ± 229 CFU"}, {"measurement": "mean CFU number ± S.D.", "setting": "E. coli (ATCC 25922); [1]", "value": "372 ± 16", "unit": "CFU"}, {"measurement": "CFU decrease/increase with respect to untreated controls", "setting": "E. coli (ATCC 25922); [2]", "value": -15, "unit": "%"}, {"measurement": "mean CFU number ± S.D.", "setting": "E. coli (ATCC 25922); [2]", "value": "147 ± 6", "unit": "CFU"}, {"measurement": "mean CFU number ± S.D.", "setting": "E. coli (ATCC 25922); [3]", "value": "343 ± 13", "unit": "CFU"}, {"measurement": "CFU decrease/increase with respect to untreated controls", "setting": "E. coli (ATCC 25922); [4]", "value": -6, "unit": "%"}, {"measurement": "mean CFU number ± S.D.", "setting": "E. coli (ATCC 25922); [4]", "value": "163 ± 18", "unit": "CFU"}, {"measurement": "mean CFU number ± S.D.", "setting": "E. coli (ATCC 25922); [5]", "value": "385 ± 24", "unit": "CFU"}, {"measurement": "mean CFU number ± S.D.", "setting": "E. coli (ATCC 25922); [6]", "value": "58 ± 8", "unit": "CFU"}, {"measurement": "mean CFU number ± S.D.", "setting": "E. coli (ATCC 25922); [7]", "value": "198 ± 7", "unit": "CFU"}, {"measurement": "CFU decrease/increase with respect to untreated controls", "setting": "E. coli (ATCC 25922); [8]", "value": -13, "unit": "%"}, {"measurement": "mean CFU number ± S.D.", "setting": "E. coli (ATCC 25922); [8]", "value": "149 ± 7", "unit": "CFU"}, {"measurement": "mean CFU number ± S.D.", "setting": "E. coli (ATCC 25922); [9]", "value": "151 ± 30", "unit": "CFU"}, {"measurement": "mean CFU number ± S.D.", "setting": "E. coli (ATCC 25922); [10]", "value": "17 ± 18", "unit": "CFU"}, {"measurement": "mean CFU number ± S.D.", "setting": "E. coli (ATCC 25922); [11]", "value": "45 ± 18", "unit": "CFU"}, {"measurement": "CFU decrease/increase with respect to untreated controls", "setting": "E. coli (ATCC 25922); [12]", "value": "+8%"}, {"measurement": "mean CFU number ± S.D.", "setting": "E. coli (ATCC 25922); [12]", "value": "187 ± 12", "unit": "CFU"}, {"measurement": "mean CFU number ± S.D.", "setting": "E. coli (ATCC 25922); peptide alone 0.032 mg/mL, 3 h", "value": "749 ± 47", "unit": "CFU"}, {"measurement": "CFU decrease/increase with respect to untreated controls", "setting": "E. coli (ATCC 25922); [13]", "value": "+1%"}, {"measurement": "mean CFU number ± S.D.", "setting": "E. coli (ATCC 25922); [13]", "value": "174 ± 6", "unit": "CFU"}, {"measurement": "mean CFU number ± S.D.", "setting": "E. coli (ATCC 25922); peptide alone 0.064 mg/mL, 3 h", "value": "634 ± 10", "unit": "CFU"}, {"measurement": "CFU decrease/increase with respect to untreated controls", "setting": "E. coli (ATCC 25922); [14]", "value": -15, "unit": "%"}, {"measurement": "mean CFU number ± S.D.", "setting": "E. coli (ATCC 25922); [14]", "value": "146 ± 17", "unit": "CFU"}, {"measurement": "mean CFU number ± S.D.", "setting": "E. coli (ATCC 25922); peptide alone 0.128 mg/mL, 3 h", "value": "625 ± 76", "unit": "CFU"}, {"measurement": "mean CFU number ± S.D.", "setting": "E. coli (ATCC 25922); [15]", "value": "140 ± 11", "unit": "CFU"}]}]}
